# What was measured:
# [1] = in situ conversion of norethindrone acetate to norethindrone in the transdermal formulation; format: physicochemical
# [2] = cited from earlier work
smiles,measurement,setting,value
"C#C[C@]1(OC(C)=O)CC[C@H]2[C@@H]3CCC4=CC(=O)CC[C@@H]4[C@H]3CC[C@@]21C [NEA, norethindrone acetate]",conversion to norethindrone in situ in the transdermal formulation,[1],does not convert to norethindrone in situ
same,time at which maximum skin flux for NEA is attained,"[2]; FIG. 3 of U.S. Pat. No. 5,980,932",only after the second day of administration
same,time at which maximum NEA skin flux is obtained following administration,"[2]; FIGS. 1 and 2 of U.S. Patent Application Publication No. 2003/0152615, in h",~48

# Reference: US20050058695A1, “Norethindrone sustained release formulations and methods associated therewith” (Watson Pharmaccuticals, Inc., priority 2002, published 2005)
